Assay results taken from paper PMC8385015, “Tumour-on-chip microfluidic platform for assessment of drug pharmacokinetics and treatment response” (Communications Biology, 2021).
“And” between values parts separate entries of the source, which are not always exact repeats. Identical values can stand only once. Like-named read-outs stand apart in the source and are kept apart here.

Columns and labels:
in vivo = settings: mouse
Protocol: The samples were collected at 5, 15, 40 min, and 1, 2, 4, 6, 8 and 24 h.
Whole blood was mixed 1:5 with PBS and centrifuged at 1500×g for 3 min at 4 °C, and the plasma was extracted and frozen at –80 °C.
Using this PK model, a time course of free plasma concentrations of both drugs was simulated (Table 1).
Acidified acetonitrile ([…]) was added with the internal standard, followed by centrifugation at 3000 rpm for 10 min. Supernatant ([…]) was then removed to a clean plate and dried under nitrogen. […]
Supplementary Method 8. Pharmacokinetic models parameters used for simulations
AZD156 PK model and PK parameters used for simulations

SW620 xenograft = type: in vivo; settings: irinotecan 50 mg/kg IP day 1 weekly + vehicle PO, single animals
Protocol: We tested different weekly in vivo dosing schedules, previously evaluated in SW620 spheroids on the chip (Fig. 5a) using matched exposure profiles to those previously observed in mouse plasma.
Male immunocompromised Hsd:Athymic Nude-Foxn1nu mice (Envigo) were used for xenograft tumour implantation. […] Animals were randomised into groups of 9–15 when tumours reached a volume of ~0.30 cm[3] and 4 weekly cycles of treatment commenced.
Tumours were measured twice weekly (length × width) by bilateral Vernier calliper measurements and tumour volume calculated using Mousetrap software. Tumour growth inhibition from start of treatment was assessed by comparison of the mean change in tumour volume for the control and treated groups using the Mousetrap application and represented as TGI.

[1] = population PK model parameter, mean

For CCc1c2c(nc3ccc(OC(=O)N4CCC(N5CCCCC5)CC4)cc13)-c1cc3c(c(=O)n1C2)COC(=O)[C@]3(O)CC [Irinotecan], the Km (in vivo; female, CB-17 SCID, in vivo) was 6.12 nM, the “Q/(1-F4)” value (in vivo; female, CB-17 SCID, in vivo) was 0.0574 L/h and the “FM*” value (in vivo; [1]) was 0.286. The “V2/(1-F4)” value (in vivo; [1]) was 0.0161 L, the “V3/(1-F4)” value (in vivo; [1]) was 5.26 L and the Vmax (in vivo; [1]) was 0.0589 µM/h. The ka (in vivo; [1]) was 0.454 h⁻¹, the Tumour size (SW620 xenograft; day 7 (fig 5b 01)) was 0.6466 cm^3 and 0.9799 cm^3 and 0.6666 cm^3 and 1.05 cm^3 and 0.9864 cm^3 and 1.225 cm^3 and 0.8608 cm^3 and 0.8801 cm^3 and 0.7589 cm^3 and 0.364 cm^3 and 1.22 cm^3 and 1.71 cm^3 and 0.9487 cm^3 and 0.9159 cm^3 and 0.8306 cm^3 and the Tumour size (SW620 xenograft; day 15 (fig 5b 02)) was 1.28 cm^3 and 1.619 cm^3 and 0.8212 cm^3 and 0.6967 cm^3 and 1.922 cm^3 and 1.901 cm^3 and 1.374 cm^3 and 0.7853 cm^3 and 2.931 cm^3. For the same compound, the Tumour size (SW620 xenograft; day 35 (fig 5b 03)) was 3.4844 cm^3 and 2.894 cm^3 and 2.205 cm^3 and 2.6873 cm^3 and 2.88 cm^3 and 1.604 cm^3 and 1.682 cm^3.
